Source: patent US9631041B2, “PH-sensitive compositions for delivery of beta lapachone and methods of use” (The Board of Regents of the University of Texas System, priority 2010, dated 2017)
≈ marks a conversion by molar mass, not a printed value. Where two headings read alike, the source gives them in different places.

Experiments:
[1] = Prodrug hydrolysis / conversion into β-lap by HPLC at different pH; assay type: physicochemical; details: for pH sensitivity of hydrolysis: hydrolysis study at neutral pH and acidic pH; for half-life at 5 μmol/mL: acetonitrile/buffered solution (30:70, v/v)
Protocol: The HPLC system consisted of a quaternary pump, a vacuum degasser, an autosampler, a C18 column (4.6 mm×250 mm, Agilent, CA) and UV detector at 254 nm (Perkin Elmer, MA, USA). The mobile phase was acetonitrile/water (60:40) and a flow rate of 1.0 mL/min was used.

[2] = system: A549 cells; experiment: Cytotoxicity assay, long-term relative survival by DNA content; assay type: cell-based, human
Protocol: Long-term, relative survival was assessed based on DNA content as described (Pink, J. J., Planchon, S. M., Tagliarino, C., Varnes, M. E., Siegel, D., and Boothman, D. A. (2000) NAD(P)H:Quinone oxidoreductase activity is the principal determinant of beta-lapachone cytotoxicity. J. Biol. Chem. 275, 5416-24). Briefly, A549 cells were seeded at 5×10^3/well in 48-well dishes a day before experiments. Cells were then mock-treated or exposed to various doses of β-lap or β-lap prodrug (6) conjugated micelles for preferred time in the presence or absence of dicoumoral (40 μM) as indicated. Subsequently, cells were replenished with drug-free medium and allowed to grow for 5-7 days until control cells reached ˜100% confluence. DNA content was determined by Hoechst 33258 staining and fluorescence detection using a plate reader (Perkin-Elmer, Boston, Mass.). Results were graphed as means±SE from sixtuplicate. Independent experiments were repeated at least three times. DIC is a specific NQO1 inhibitor and used to block β-Lap induced cytotoxicity.

[3] = molecular target: NQO1 (Homo sapiens, UniProt P15559); details: upon NQO1 bioactivation, futile cycle; cited from earlier work
[4] = inclusion complex with hydroxylpropyl β-cyclodextrin; cited from earlier work
[5] = free drug; cited from earlier work

Sequence of NQO1 (P15559 whole entry): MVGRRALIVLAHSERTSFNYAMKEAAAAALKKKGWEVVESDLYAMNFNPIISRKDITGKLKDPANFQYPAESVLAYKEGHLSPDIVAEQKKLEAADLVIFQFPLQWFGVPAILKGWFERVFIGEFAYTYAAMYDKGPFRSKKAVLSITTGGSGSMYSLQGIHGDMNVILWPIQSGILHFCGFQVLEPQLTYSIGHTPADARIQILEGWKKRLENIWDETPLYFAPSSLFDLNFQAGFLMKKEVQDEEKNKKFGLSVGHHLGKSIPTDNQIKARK

CC(=O)N/N=C1\C(=O)C2=C(OC(C)(C)CC2)c2ccccc21 [prodrug (1), (Z)—N′-(2,2-dimethyl-5-oxo-3,4-dihydro-2H-benzo[h]chromen-6(5H)-ylidene)acetohydrazide]
pH sensitivity of hydrolysis [1]: not pH-sensitive

Nc1ccc(N2C(=O)C=CC2=O)cc1 [linker, N-(4-Aminophenyl)maleimide]
toxicity ([2]; A549, treatment up to 24 h): No toxicity

CC1(C)CCC2=C(O1)c1ccccc1/C(=N\c1ccc(N3C(=O)C=CC3=O)cc1)C2=O [prodrug (6), (E)-1-(4-(2,2-dimethyl-5-oxo-3,4-dihydro-2H-benzo[h]chromen-6(5H)-ylideneamino)phenyl)-1H-pyrrole-2,5-dione]
half-life at 5 μmol/mL ([1]; pH 5, pH 5.0, room temperature, read-out: half-life of conversion into β-lap, t1/2 (pH 5.0) (converted)): 1.1 h | half-life at 5 μmol/mL ([1]; pH 7.4, pH 7.4, read-out: half-life for hydrolysis, t1/2 (pH 7.4)): > 90 h | pH sensitivity of hydrolysis [1]: inspiring pH sensitivity both at neutral and at acidic conditions | prodrug converted into β-Lap ([1]; pH 5.0, after 1.5 hr): more than 50% | prodrug hydrolyzed ([1]; pH 5.0, after 10 hrs): all prodrug (6) was hydrolyzed | β-Lap released from prodrug ([1]; pH 5.0 buffer, 5 mins): only a trace | prodrug converted into β-Lap ([1]; pH 6.5, after 24 hrs): about 30% | prodrug converted into β-Lap ([1]; pH 7.4, after 24 hrs): ~3.3%

CC1(C)CCC2=C(O1)c1ccccc1C(=O)C2=O [β-lap, β-Lapachone]
moles of H2O2 and other ROS produced per mole of β-lap [3]: 120 mol | binding constant [4]: 1100 M⁻¹ | cytotoxicity in the presence of dicoumarol (NQO1 inhibitor) ([2]; A549, dicoumarol 40 μM): blocked | concentration sufficient to reach maximal cytotoxicity ([2]; A549 cells, within 2 hours): 5 µM | aqueous solubility [5]: 38 µg/mL (≈ 157 µM)

CC1(C)CCC2=C(O1)c1ccccc1[C@]1(OC[C@@](C)(CO)CO1)C2=O [prodrug (2), (2′r,5′r)-5′-(hydroxymethyl)-2,2,5′-trimethyl-3,4-dihydrospiro[benzo[h]chromene-6,2′-[1,3]dioxan]-5(2H)-one]
pH sensitivity of hydrolysis [1]: not pH-sensitive

CC1(C)CCc2c(c3ccccc3c3nc(CCCCO)oc23)O1 [(4), 4-(6,6-dimethyl-5,6-dihydro-4H-benzo[7,8]chromeno[6,5-d]oxazol-2-yl)butan-1-ol]
pH sensitivity of hydrolysis [1]: resisted acid catalyzed hydrolysis

CC1(C)CCC2=C(O1)c1ccccc1[C@]1(OC[C@](C)(CO)CO1)C2=O [prodrug (3), (2′s,5′s)-5′-(hydroxymethyl)-2,2,5′-trimethyl-3,4-dihydrospiro[benzo[h]chromene-6,2′-[1,3]dioxan]-5(2H)-one]
pH sensitivity of hydrolysis [1]: not pH-sensitive

Cc1cc2nc3c(oc-2cc1=O)c1c(c2ccccc23)OC(C)(C)CC1 [(5), 3,3,11-trimethyl-2,3-dihydrobenzo[a]pyrano[2,3-c]phenoxazin-12(1H)-one]
pH sensitivity of hydrolysis [1]: resisted acid catalyzed hydrolysis
